Measured values published in PMC4492579, “Potent and Selective Triazole-Based Inhibitors of the Hypoxia-Inducible Factor Prolyl-Hydroxylases with Activity in the Murine Brain” (PLoS ONE, 2015).
Counter-ions that a name gives are not always drawn. Blank lines part the entries; values can stand above or below the molecule they belong to.

Columns and labels:
FIH = FIH (Homo sapiens, UniProt Q9NWT6); assay: FIH liquid chromatography-mass spectrometry assay (RapidFire)
Description: After 15 minutes, the enzyme reaction was stopped by the addition of 4 ml 10% formic acid and the reaction mixture transferred to a RapidFire RF360 high throughput sampling robot. Samples were aspirated under vacuum onto a C4 Solid Phase Extraction (SPE) cartridge. […] Ion chromatogram data was extracted for the non-hydroxylated peptide substrate and the hydroxylated peptide product and peak area data for extracted ion chromatograms were integrated using RapidFire Integrator software. Percentage conversion of substrate to product was calculated in Microsoft Excel and IC50 values were calculated using Graphpad Prism 5.

BBOX1 = biological target: T1, BBOX1 (Homo sapiens, UniProt O75936); parameters: method as in PMID 22730246; conditions: cited from earlier work
T1 sequence (O75936 1-387): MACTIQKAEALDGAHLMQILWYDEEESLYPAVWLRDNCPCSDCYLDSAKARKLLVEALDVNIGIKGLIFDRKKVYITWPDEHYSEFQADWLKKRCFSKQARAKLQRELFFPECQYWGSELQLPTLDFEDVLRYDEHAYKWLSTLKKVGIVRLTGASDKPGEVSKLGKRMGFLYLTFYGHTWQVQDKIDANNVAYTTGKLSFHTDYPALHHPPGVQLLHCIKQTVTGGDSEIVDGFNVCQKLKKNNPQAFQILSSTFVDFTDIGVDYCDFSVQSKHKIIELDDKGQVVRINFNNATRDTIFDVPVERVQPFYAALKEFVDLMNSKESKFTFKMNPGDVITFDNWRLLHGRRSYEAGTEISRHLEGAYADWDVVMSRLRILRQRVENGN

JMJD2C (KDM4C) = biological target: T2, JMJD2C (KDM4C) (Homo sapiens, UniProt Q9H3R0); parameters: method as in PMID 26682036; conditions: cited from earlier work
T2 sequence (Q9H3R0 1-1056): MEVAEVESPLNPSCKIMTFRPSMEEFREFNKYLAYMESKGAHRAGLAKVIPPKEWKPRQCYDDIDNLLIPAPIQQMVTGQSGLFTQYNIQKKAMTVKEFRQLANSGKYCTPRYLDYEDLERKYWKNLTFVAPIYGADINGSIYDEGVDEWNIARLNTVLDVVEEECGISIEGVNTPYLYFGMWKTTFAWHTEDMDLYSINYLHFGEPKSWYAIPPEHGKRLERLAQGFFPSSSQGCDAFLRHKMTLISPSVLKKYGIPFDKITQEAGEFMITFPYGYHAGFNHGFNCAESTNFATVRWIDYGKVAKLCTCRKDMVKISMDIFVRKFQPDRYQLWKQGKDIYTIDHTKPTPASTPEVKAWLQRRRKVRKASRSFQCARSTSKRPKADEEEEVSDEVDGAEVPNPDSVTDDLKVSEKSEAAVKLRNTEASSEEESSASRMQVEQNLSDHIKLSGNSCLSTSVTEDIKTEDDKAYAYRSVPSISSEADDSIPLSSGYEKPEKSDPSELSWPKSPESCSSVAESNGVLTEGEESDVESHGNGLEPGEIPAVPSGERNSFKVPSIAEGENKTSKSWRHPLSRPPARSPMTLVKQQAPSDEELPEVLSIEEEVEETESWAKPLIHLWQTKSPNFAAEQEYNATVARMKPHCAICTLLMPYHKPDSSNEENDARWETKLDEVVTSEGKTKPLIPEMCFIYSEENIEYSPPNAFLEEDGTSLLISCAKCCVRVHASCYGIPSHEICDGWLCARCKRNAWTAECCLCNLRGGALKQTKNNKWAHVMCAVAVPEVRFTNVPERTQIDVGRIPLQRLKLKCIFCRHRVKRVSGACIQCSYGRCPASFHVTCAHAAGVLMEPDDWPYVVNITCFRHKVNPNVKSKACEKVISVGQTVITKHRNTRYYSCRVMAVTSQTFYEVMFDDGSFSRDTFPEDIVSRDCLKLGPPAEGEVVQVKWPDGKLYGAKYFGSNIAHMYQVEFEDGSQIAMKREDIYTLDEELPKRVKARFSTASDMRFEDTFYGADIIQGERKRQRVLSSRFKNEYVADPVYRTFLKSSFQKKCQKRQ

JMJD2A (KDM4A) = biological target: T3, JMJD2A (KDM4A) (Homo sapiens, UniProt O75164); parameters: method as in PMID 26682036; conditions: cited from earlier work
T3 sequence (O75164 1-1064): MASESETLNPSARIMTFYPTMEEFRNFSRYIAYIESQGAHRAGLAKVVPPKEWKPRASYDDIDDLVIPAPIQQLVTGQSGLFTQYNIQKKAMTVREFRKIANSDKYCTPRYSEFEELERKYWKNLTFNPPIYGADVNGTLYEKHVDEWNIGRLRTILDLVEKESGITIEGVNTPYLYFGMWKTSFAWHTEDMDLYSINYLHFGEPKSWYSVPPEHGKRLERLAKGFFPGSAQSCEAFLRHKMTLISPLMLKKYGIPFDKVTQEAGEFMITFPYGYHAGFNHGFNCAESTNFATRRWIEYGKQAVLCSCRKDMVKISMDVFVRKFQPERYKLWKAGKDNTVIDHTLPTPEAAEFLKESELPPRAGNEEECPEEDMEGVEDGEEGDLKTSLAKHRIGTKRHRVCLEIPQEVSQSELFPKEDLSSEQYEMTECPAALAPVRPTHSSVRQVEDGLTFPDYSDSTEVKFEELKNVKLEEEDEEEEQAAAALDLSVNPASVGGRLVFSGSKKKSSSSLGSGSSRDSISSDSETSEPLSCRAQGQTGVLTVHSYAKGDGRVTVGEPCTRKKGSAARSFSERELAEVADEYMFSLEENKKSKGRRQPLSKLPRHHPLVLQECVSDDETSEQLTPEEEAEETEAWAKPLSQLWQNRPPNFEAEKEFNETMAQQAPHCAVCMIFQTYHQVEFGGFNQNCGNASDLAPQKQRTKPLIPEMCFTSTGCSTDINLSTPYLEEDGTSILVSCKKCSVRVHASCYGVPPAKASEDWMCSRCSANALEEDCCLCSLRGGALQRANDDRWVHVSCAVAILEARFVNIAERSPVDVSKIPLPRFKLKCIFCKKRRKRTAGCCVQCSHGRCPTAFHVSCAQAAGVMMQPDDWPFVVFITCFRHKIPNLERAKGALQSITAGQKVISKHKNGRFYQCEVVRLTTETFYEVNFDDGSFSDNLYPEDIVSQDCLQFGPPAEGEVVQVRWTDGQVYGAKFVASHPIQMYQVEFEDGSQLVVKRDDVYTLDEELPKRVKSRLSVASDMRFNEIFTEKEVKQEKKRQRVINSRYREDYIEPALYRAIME

HIF1α and HIF2α = assay: HIFα induction in tissues of treated mice (immunoblotting); type: in vivo, C57BL/6 mice; conditions: i.p.
Description: All animal experiments were performed on male C57BL/6 mice aged 3 months (purchased from Harlan Laboratories, Blackthorn) housed in specific pathogen free conditions with free access to water and standard chow. Mice were injected intraperitonially with the inhibitor (dissolved in Hanks’ buffered saline solution, pH 7.0, 5% DMSO final) or vehicle at the indicated doses for the indicated time as previously described. Tissues from treated mice were harvested and ‘snap frozen’ with liquid nitrogen before being stored at -80°C. For immunoblotting, a portion of the tissues was removed, weighed and homogenised in urea/SDS buffer before being analysed by immunoblotting with HIF1α rabbit polyclonal antibody (10006421, Cayman Chemical, 1:1000) or HIF2α rabbit polyclonal antibody (PM9 [27], 1:1000). For RNA extraction, tissues were ‘snap frozen’ in liquid nitrogen immediately after harvesting, then ground to a fine powder using a cryogenic tissue pulveriser, keeping samples on dry ice at all times and processed for total RNA extraction using the mirVana miRNA isolation kit (AM1560, Life Technologies) according to the manufacturer’s protocol for processing frozen tissues. All animal procedures were compliant with the UK Home Office Animals (Scientific Procedures) Act 1986 and Local Ethical Review Procedures (University of Oxford Medical Sciences Division Ethical Review Committee).
The inhibitors or vehicle controls were injected intraperitonially into wild type C57BL/6 mice and sacrificed after the indicated treatment time before harvesting their tissues to be analysed for HIFα levels by immunoblotting.

PHD2 = PHD2 (Homo sapiens, UniProt Q9GZT9); assay: Competition-based NMR reporter ligand displacement assay ([13C]-2OG / [13C]-CODD); type: binding; conditions: 50 μM apo-PHD2, 400 μM Zn(II), 400 μM competitor
Chain of PHD2 (Q9GZT9 whole entry): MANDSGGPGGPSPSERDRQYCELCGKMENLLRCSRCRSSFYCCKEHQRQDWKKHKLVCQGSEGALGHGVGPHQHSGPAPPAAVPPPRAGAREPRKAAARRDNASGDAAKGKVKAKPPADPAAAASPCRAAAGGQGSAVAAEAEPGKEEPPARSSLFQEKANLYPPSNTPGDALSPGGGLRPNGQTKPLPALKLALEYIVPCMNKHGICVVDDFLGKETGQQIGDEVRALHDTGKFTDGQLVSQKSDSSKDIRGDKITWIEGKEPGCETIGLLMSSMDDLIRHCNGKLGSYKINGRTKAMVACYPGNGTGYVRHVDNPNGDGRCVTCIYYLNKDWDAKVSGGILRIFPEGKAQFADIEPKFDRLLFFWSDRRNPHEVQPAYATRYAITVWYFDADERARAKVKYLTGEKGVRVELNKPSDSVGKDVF
Description: For 2OG displacement assays, selective ^1H-^13C 1D-HSQC experiments were conducted at 700 MHz using a Bruker Avance III spectrometer equipped with an inverse TCI cryoprobe optimized for ^1H observation. The CLIP-HSQC sequence was used (without ^13C decoupling). Typical experimental parameters were as follows: acquisition time 0.58 s, relaxation delay 2 s, number of transients 256−1600. The 1JCH was set to 160 Hz. For the selective version of the experiment, a 6.8 ms Q3 180 degree pulse was used, and selective irradiation was applied at the appropriate [^13C] chemical shift. Three millimeter MATCH tubes with a 160 μL final sample volume were used. Solutions were buffered using Tris-D11 50 mM (pH 7.5) dissolved in 90% H2O and 10% D2O. Assays were conducted at 298 K in solutions typically containing 50 μM apo-PHD2, 400 μM Zn(II), 50 μM 1,2,3,4-[^13C]-2OG or [^13C]-labeled CODD (uniformly [^13C]-labeled at proline-564) and 400 μM competitor (except unlabeled CODD competitor used at 800 μM). Selective irradiation was applied at 30.5 ppm for [^13C]-2OG and 24.25 ppm for [^13C]-labeled CODD. Percentage displacement was calculated according to equation: (I−I0)/(Iblank−I0) where I 0 is the intensity of the reporter in the presence of protein but without inhibitor, I is the intensity of the reporter in the presence of protein and inhibitor, and I blank is the intensity of the reporter without protein or inhibitor.
The results reveal that the previously described inhibitor IOX2 displaces 2OG from PHD2 (S3A Fig), consistent with its predicted binding mode. […] Previous crystallographic studies have shown that the HIF substrate can still bind even when the 2OG active site is occupied by some, but not all, inhibitors.

[1] = 1 h, equimolar: IOX2 37.7 mg/kg, IOX4 35 mg/kg, DMOG 75 mg/kg

Chain of FIH (Q9NWT6 whole entry): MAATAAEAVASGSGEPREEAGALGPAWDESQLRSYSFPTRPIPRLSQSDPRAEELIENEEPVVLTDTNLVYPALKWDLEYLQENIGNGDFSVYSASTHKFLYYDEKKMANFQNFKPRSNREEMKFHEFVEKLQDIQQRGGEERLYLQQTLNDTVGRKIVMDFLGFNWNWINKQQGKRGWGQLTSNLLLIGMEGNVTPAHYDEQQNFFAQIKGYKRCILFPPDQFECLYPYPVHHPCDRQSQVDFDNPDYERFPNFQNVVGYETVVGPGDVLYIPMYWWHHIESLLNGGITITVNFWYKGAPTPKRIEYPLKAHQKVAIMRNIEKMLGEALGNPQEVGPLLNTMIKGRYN

displacement of [13C]-2OG from PHD2 (PHD2): displace both 2OG and CODD | displacement of [13C]-CODD from PHD2 (PHD2): displace both 2OG and CODD
Compound: O=C(O)Cc1cs/c(=N/C(=O)CS(=O)(=O)Cc2ccc3ccccc3c2)n1O [BNS, bicyclic naphthalenylsulfone hydroxythiazole]

melting point: ≥ 316.6 °C (dec.)
Compound: O=C(O)c1ccc(-n2[nH]cc(-n3ccnn3)c2=O)nc1 (as salt: hydrochloride) [compound 1, 6-(5-oxo-4-(1H-1,2,3-triazol-1-yl)-2,5-dihydro-1H-pyrazol-1-yl)pyridine-3-carbocylic acid hydrochloride]

Continued, molecule first:

Compound: O=C(O)CNC(=O)C(=O)O [NOG, N-oxalylglycine]
IC50 (FIH): 2300 nM | IC50 (BBOX1): 390 nM | IC50 (JMJD2C (KDM4C)): 600 nM | IC50 (JMJD2A (KDM4A)): 200 nM

Compound: O=C(O)CNC(=O)c1nc(Cl)c2ccccc2c1O [IOX3]
HIF1α induction in mouse liver (HIF1α and HIF2α; IOX2 37.7 mg/kg, IOX3 30 mg/kg (equivalent molar dose), 1 h and […]): lower and shorter induction of HIF1α

Compound: COC(=O)CNC(=O)C(=O)OC [DMOG, dimethyloxalylglycine]
HIF1α and HIF2α induction in liver, kidney and heart (HIF1α and HIF2α; [1]): induction of HIF1α and HIF2α | HIF1α and HIF2α induction in the brain (HIF1α and HIF2α; [1]): not
